Results published in patent US9555036B2, “Pyrazolopyrimidine compounds” (GlaxoSmithKline LLC, priority 2012, dated 2017).
Where a name gives a salt, the structure may show the parent alone.

Test system: TNF-α
Experiment: Induction of TNF-α using fresh human whole blood (WB)
Type: cell-based
Conditions: three donors, overnight incubation, cytokine as % of 2 μM resiquimod control, read-out: mean pEC50 for TNF-α (converted)
Protocol: Assay for the Induction of Interferon-α and TNF-α Using Fresh Human Whole Blood (WB) Compound Preparation
Compounds were prepared at 100× required concentration in DMSO in flat-bottom microtitre plates at a volume of 1.5 μL. Columns 1-10 contained a 1 in 4 serial dilution of the test compound. Included on each plate was a serial dilution of the TLR7/8 agonist resiquimod as a standard and Column 11 contained 1.5 μl of 200 μM resiquimod (giving a 2 μM final concentration, used to define the approximate maximal response to resiquimod). Each compound was assayed in duplicate for each donor.
Incubation and Assays for Interferon-α and TNF-α
Blood samples from three human donors were collected into sodium heparin (10 U/ml). 150 μl of whole Blood was dispensed into Col 1 to 11 of assay plates containing 1.5 μl of test compound or standard in DMSO. Plates were placed in an incubator overnight (37° C., 95% air, 5% CO2). Following the overnight incubation, plates were removed from the incubator & mixed on an orbital shaker for approximately 1 minute. 100 μl of 0.9% saline was added to each well and the plates mixed again on an orbital shaker. Plates were then centrifuged (2500 rpm, 10 mins), after which a sample of plasma was removed using a Biomek FX and assayed for both IFN-α and TNF-α using the MSD (Mesoscale Discovery) electrochemiluminescence assay platform. The IFN-α assay was carried out similarly to that described above. The TNF-α assay was carried out as per kit instructions (Cat No K111BHB).
Cytokine released was expressed as a percentage of the 2 μM resiquimod control (column 11). This percentage was plotted against compound concentration and the pEC50 for the response determined by non-linear least squares curve fitting. For the IFN-α responses, generally a 4 parameter logistic model was selected. For the TNF responses where a clear maximum response was obtained (i.e. a well defined plateau in the response was observed) then a 4 parameter model was generally used. If the upper asymptote of the curve wasn't well defined then the curve fitting was generally constrained to a maximal response of 100% (i.e. to the response to 2 μM resiquimod) or to the response of the highest concentration tested if this was greater than the resiquimod response. Some curves were bell shaped for one or both cytokines and the cytokine data on the down slope of the bell shaped response (i.e. concentrations above those giving the maximal response) were generally excluded from the fit, usually with the exception of the concentration immediately above the peak response. Curve fitting thus concentrated on the up slope of the dose response curve.

Row | Compound | EC50
1 | CCCCc1nc(N)c2[nH]nc(CCCCCCN3CCCCC3)c2n1 [Example 1, 5-Butyl-3-(6-(piperidin-1-yl)hexyl)-1H-pyrazolo[4,3-d]pyrimidin-7-amine formate] | ≤ 3.98 µM
2 | COCCc1nc(N)c2[nH]nc(CCCCCCN3CCCCC3)c2n1 [Example 2, 5-(2-Methoxyethyl)-3-(6-(piperidin-1-yl)hexyl)-1H-pyrazolo[4,3-d]pyrimidin-7-amine] | ≤ 3.98 µM
3 | COCCc1nc(N)c2[nH]nc(CCCCCCN3CCCC3)c2n1 [Example 4, 5-(2-Methoxyethyl)-3-(6-(pyrrolidin-1-yl)hexyl)-1H-pyrazolo[4,3-d]pyrimidin-7-amine] | ≤ 3.98 µM
4 | CCCCc1nc(N)c2[nH]nc(CCCCCN3CCCCC3)c2n1 [Example 5, 5-Butyl-3-(5-(piperidin-1-yl)pentyl)-1H-pyrazolo[4,3-d]pyrimidin-7-amine] | ≤ 3.98 µM
5 | CCCCc1nc(N)c2[nH]nc(CCCCCN3CCCC3)c2n1 [Example 6, 5-Butyl-3-(5-(pyrrolidin-1-yl)pentyl)-1H-pyrazolo[4,3-d]pyrimidin-7-amine] | ≤ 3.98 µM
6 | CCCCc1nc(N)c2[nH]nc(CCCCCCCN3CCCCC3)c2n1 [Example 7, 5-Butyl-3-(7-(piperidin-1-yl)heptyl)-1H-pyrazolo[4,3-d]pyrimidin-7-amine] | ≤ 3.98 µM
7 | CCCCc1nc(N)c2[nH]nc(CCCCCCCN3CCCC3)c2n1 [Example 8, 5-Butyl-3-(7-(pyrrolidin-1-yl)heptyl)-1H-pyrazolo[4,3-d]pyrimidin-7-amine] | ≤ 3.98 µM
8 | CCCCc1nc(N)c2[nH]nc(CCCCCCN3CCCCCC3)c2n1 [Example 9, 3-(6-(Azepan-1-yl)hexyl)-5-butyl-1H-pyrazolo[4,3-d]pyrimidin-7-amine] | ≤ 3.98 µM
9 | CCCCc1nc(N)c2[nH]nc(CCCCCN3CCCCCC3)c2n1 [Example 10, 3-(5-(Azepan-1-yl)pentyl)-5-butyl-1H-pyrazolo[4,3-d]pyrimidin-7-amine] | ≤ 3.98 µM
10 | CCCCc1nc(N)c2[nH]nc(CCCCCCN3CC[C@H](F)C3)c2n1 [Example 11, (S)-5-Butyl-3-(6-(3-fluoropyrrolidin-1-yl)hexyl)-1H-pyrazolo[4,3-d]pyrimidin-7-amine] | ≤ 3.98 µM
11 | CCCCc1nc(N)c2[nH]nc(CCCCCN3CC[C@H](F)C3)c2n1 [Example 12, (S)-5-Butyl-3-(5-(3-fluoropyrrolidin-1-yl)pentyl)-1H-pyrazolo[4,3-d]pyrimidin-7-amine] | ≤ 3.98 µM
12 | CCCCc1nc(N)c2[nH]nc(CCCCCCN3CC[C@@H](F)C3)c2n1 [Example 13, (R)-5-Butyl-3-(6-(3-fluoropyrrolidin-1-yl)hexyl)-1H-pyrazolo[4,3-d]pyrimidin-7-amine formate] | ≤ 3.98 µM
13 | CCCCc1nc(N)c2[nH]nc(CCCCCN3CC[C@@H](F)C3)c2n1 [Example 14, (R)-5-Butyl-3-(5-(3-fluoropyrrolidin-1-yl)pentyl)-1H-pyrazolo[4,3-d]pyrimidin-7-amine] | ≤ 3.98 µM
14 | CCCCc1nc(N)c2[nH]nc(CCCCCCN3CCC(O)CC3)c2n1 [Example 15, 1-(6-(7-Amino-5-butyl-1H-pyrazolo[4,3-d]pyrimidin-3-yl)hexyl)piperidin-4-ol] | ≤ 3.98 µM
15 | CCCCc1nc(N)c2[nH]nc(CCCCCN3CCC(O)CC3)c2n1 [Example 16, 1-(5-(7-Amino-5-butyl-1H-pyrazolo[4,3-d]pyrimidin-3-yl)pentyl)piperidin-4-ol] | ≤ 3.98 µM
16 | CCCCc1nc(N)c2[nH]nc(CCCCCCN3CCC(F)CC3)c2n1 [Example 17, 5-Butyl-3-(6-(4-fluoropiperidin-1-yl)hexyl)-1H-pyrazolo[4,3-d]pyrimidin-7-amine formate] | ≤ 3.98 µM
17 | CCCCc1nc(N)c2[nH]nc(CCCCCN3CCC(F)CC3)c2n1 [Example 18, 5-Butyl-3-(5-(4-fluoropiperidin-1-yl)pentyl)-1H-pyrazolo[4,3-d]pyrimidin-7-amine] | ≤ 3.98 µM
